The source made the active and inactive calls. No cut-off for these calls is given here.
target: T1, Cell division protein FtsZ (Staphylococcus aureus, UniProt P0A031); experiment: Activation of Staphylococcus aureus FtsZ GTPase activity
T1 sequence (P0A031 whole entry): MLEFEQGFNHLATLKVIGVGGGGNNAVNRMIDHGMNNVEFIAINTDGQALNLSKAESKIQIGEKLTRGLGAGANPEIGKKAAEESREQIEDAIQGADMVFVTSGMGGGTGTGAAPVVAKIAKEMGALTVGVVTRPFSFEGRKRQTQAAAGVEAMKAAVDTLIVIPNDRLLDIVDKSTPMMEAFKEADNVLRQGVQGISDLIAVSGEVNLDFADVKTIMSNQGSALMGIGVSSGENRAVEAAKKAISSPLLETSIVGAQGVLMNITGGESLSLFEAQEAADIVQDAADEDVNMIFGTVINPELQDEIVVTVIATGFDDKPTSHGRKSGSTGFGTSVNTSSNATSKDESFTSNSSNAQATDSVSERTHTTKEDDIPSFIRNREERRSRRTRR

Compound | EC50
NC(=O)c1c(F)ccc(OCc2nc3cc(Cl)cnc3s2)c1F | 4 µM

target: T2, Cell division protein FtsZ (Escherichia coli K-12, UniProt P0A9A6); experiment: Inhibition of Escherichia coli FtsZ GTPase activity after 5 mins by enzyme-coupled inhibition assay
T2 sequence (P0A9A6 whole entry): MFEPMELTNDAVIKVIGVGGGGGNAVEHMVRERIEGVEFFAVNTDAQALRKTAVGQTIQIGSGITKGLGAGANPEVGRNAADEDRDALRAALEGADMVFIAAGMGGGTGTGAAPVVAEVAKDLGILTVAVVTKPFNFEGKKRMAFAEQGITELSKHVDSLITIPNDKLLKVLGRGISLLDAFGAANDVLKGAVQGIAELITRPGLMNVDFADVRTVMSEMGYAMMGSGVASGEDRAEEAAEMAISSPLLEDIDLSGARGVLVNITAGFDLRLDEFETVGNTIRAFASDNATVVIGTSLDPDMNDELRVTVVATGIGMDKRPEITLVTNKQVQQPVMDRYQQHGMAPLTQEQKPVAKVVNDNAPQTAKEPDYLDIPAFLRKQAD

Compound | IC50
Cc1ccc2nc(/C=C/c3ccc(Cl)cc3)nc(NCCN)c2c1 | 27 µM
Cc1ccc2nc(/C=C/c3ccc(Cl)cc3)nc(NCCN(C)C)c2c1 | 24 µM
Cc1ccc2nc(C(=O)NCc3ccc(Cl)cc3)nc(NCCN(C)C)c2c1 | > 128 µM
CC(=O)NCCNc1nc(/C=C/c2ccc(Cl)cc2)nc2cc3ccccc3cc12 | > 128 µM
CN(C)CCNc1nc(/C=C/c2ccc(Cl)cc2)nc2ccc(-c3ccncc3)cc12 | 30 µM
CN(C)CCNc1nc(/C=C/c2ccc(Cl)cc2)nc2ccc(C(=O)c3ccccc3)cc12 | 85 µM
CC(C)(C)OC(=O)NCCNc1nc(/C=C/c2ccc(Cl)cc2)nc2cc3ccccc3cc12 | > 128 µM
Cc1ccc2nc(/C=C/c3ccc(Cl)cc3)nc(NCCNC(=O)OC(C)(C)C)c2c1 | > 128 µM
CN(C)CCCNc1nc(/C=C/c2ccc(Cl)cc2)nc2cc3ccccc3cc12 | 65 µM
COCCCNc1nc(/C=C/c2ccc(Cl)cc2)nc2cc3ccccc3cc12 | > 128 µM
CN(C)CCNc1nc(/C=C/c2ccc(Cl)cc2)nc2ccccc12 | > 128 µM
CN(C)CCNc1nc(/C=C/c2ccc(Cl)cc2)nc2ccc(-c3cccs3)cc12 | > 128 µM
CSCCNc1nc(/C=C/c2ccc(Cl)cc2)nc2cc3ccccc3cc12 | > 128 µM
CN(C)CCNc1nc(/C=C/c2ccc(N=[N+]=[N-])cc2)nc2cc3ccccc3cc12 | 14 µM
NCCNc1nc(/C=C/c2ccc(Cl)cc2)nc2cc3ccccc3cc12 | 9 µM
CN(C)CCNc1nc(/C=C/c2ccc(Cl)cc2)nc2ccc(Br)cc12 | 30 µM
CN(C)CCNc1nc(/C=C/c2ccc(Cl)cc2)nc2ccc(-c3ccccc3)cc12 | 28 µM
COCCNc1nc(/C=C/c2ccc(Cl)cc2)nc2cc3ccccc3cc12 | > 128 µM
Cc1cccc2nc(/C=C/c3ccc(Cl)cc3)nc(NCCN(C)C)c12 | > 128 µM
COc1cc2nc(/C=C/c3ccc(Cl)cc3)nc(NCCN(C)C)c2cc1OC | 100 µM
CN(C)CCNc1nc(/C=C/c2ccc(Cl)cc2)nc2cc(C(F)(F)F)ccc12 | > 128 µM
C[N+](C)(C)CCNc1nc(/C=C/c2ccc(Cl)cc2)nc2cc3ccccc3cc12 | 52 µM
CN(C)CCNc1nc(/C=C/c2ccc(Cl)cc2)nc2ccc(-c3ccc4ccccc4c3)cc12 | 58 µM
CC(C)(C)OC(=O)CNc1nc(/C=C/c2ccc(Cl)cc2)nc2cc3ccccc3cc12 | > 128 µM
CN(C)CCNc1nc(/C=C/c2ccc(Cl)cc2)nc2ccc(C3=CCCCC3)cc12 | 49 µM
Cc1ccc2nc(C(=O)Nc3ccc(Cl)cc3)nc(NCCN)c2c1 | > 128 µM
COCCNc1nc(/C=C/c2ccc(Cl)cc2)nc2ccc(C)cc12 | > 128 µM
CN(C)CCNc1nc(/C=C/c2ccc(I)cc2)nc2cc3ccccc3cc12 | 24 µM
CN(C)CCOc1nc(/C=C/c2ccc(Cl)cc2)nc2cc3ccccc3cc12 | 26 µM
CN(C)CCNc1nc(/C=C/c2ccc(Cl)cc2)nc2ccc(I)cc12 | 95 µM

target: T3, Cell division protein FtsZ (Escherichia coli K-12) (UniProt P0A9A6); experiment: Competitive inhibition of Escherichia coli FtsZ GTPase activity after 5 mins by enzyme-coupled inhibition assay in presence of 10 to 1250 uM GTP
T3 sequence (whole entry): T2 sequence (P0A9A6 whole entry)

Compound | inhibition
CCN(CC)CCNc1nc(/C=C/c2ccc(Cl)cc2)nc2cc3ccccc3cc12 | inactive

target: not listed separately; experiment: Inhibition of bacterial FtsZ GTPase activity (unknown origin)

Compound | IC50
CN(C)CCNc1nc(/C=C/c2ccc(Cl)cc2)nc2cc3ccccc3cc12 | 12 µM
CCN(CC)CCNc1nc(/C=C/c2ccc(Cl)cc2)nc2cc3ccccc3cc12 | 24 µM

target: T4, Cell division protein FtsZ (Bacillus subtilis (strain 168), UniProt P17865); experiment: Inhibition of Bacillus subtilis FtsZ GTPase activity after 5 mins by enzyme-coupled inhibition assay
T4 sequence (P17865 whole entry): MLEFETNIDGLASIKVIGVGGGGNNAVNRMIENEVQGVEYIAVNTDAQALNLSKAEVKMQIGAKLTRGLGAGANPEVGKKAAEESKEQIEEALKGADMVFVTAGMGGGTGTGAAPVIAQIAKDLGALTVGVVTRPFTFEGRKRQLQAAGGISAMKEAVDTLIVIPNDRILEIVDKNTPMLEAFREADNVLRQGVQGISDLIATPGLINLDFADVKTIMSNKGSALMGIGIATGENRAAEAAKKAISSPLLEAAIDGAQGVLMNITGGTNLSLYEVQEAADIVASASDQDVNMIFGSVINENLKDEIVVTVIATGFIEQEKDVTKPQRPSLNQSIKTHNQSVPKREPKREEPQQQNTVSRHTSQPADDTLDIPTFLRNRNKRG

Compound | IC50
Cc1ccc2nc(N)nc(NCCN(C)C)c2c1 | > 128 µM
Cc1ccc2nc(-c3cccs3)nc(NCCN(C)C)c2c1 | > 128 µM
Cc1ccc2nc(NCc3ccccc3)nc(NCCN(C)C)c2c1 | > 128 µM
Cc1ccc2nc(-c3ccc(Cl)cc3)nc(NCCN(C)C)c2c1 | > 128 µM
Cc1ccc2nc(-c3cc4ccccc4o3)nc(NCCN(C)C)c2c1 | > 128 µM
Cc1ccc2nc(/C=C/c3ccc(C(F)(F)F)cc3)nc(NCCN(C)C)c2c1 | > 128 µM
Cc1ccc2nc(/C=C/c3ccc(I)cc3)nc(NCCN(C)C)c2c1 | > 128 µM
Cc1ccc2nc(/C=C/c3ccc(Br)cc3)nc(NCCN(C)C)c2c1 | > 128 µM
Cc1ccc2nc(NCc3ccc(Cl)cc3)nc(NCCN(C)C)c2c1 | > 128 µM
COc1ccc(-c2nc(NCCN(C)C)c3cc(C)ccc3n2)cc1 | > 128 µM
Cc1ccc2nc(/C=C/c3ccc(C(C)(C)C)cc3)nc(NCCN(C)C)c2c1 | > 128 µM
Cc1ccc2nc(-c3ccc4ccccc4c3)nc(NCCN(C)C)c2c1 | > 128 µM
